Bounds are passed on as bounds.

The source of these data is paper PMC9535023, “Inhibition of phospholipase D1 induces immunogenic cell death and potentiates cancer immunotherapy in colorectal cancer” (Experimental & Molecular Medicine, 2022).

The nature of data set [1]: Single oral dose toxicity in mice. The settings on record: female and male mice.
Another data set has as its target T1, PLD2 (Mus musculus, UniProt P97813).
T1 construct: endogenous in cells; host or cells: immortalized Pld1-/- mouse embryonic fibroblasts
Description: PLD2 activity in Pld1−/− MEFs. It counts as cell-based. The protocol:
Cells were labeled with [H^3] myristic acid, and PLD activity was assessed by measuring the formation of [H^3] phosphatidylbutanol, which is the product of PLD-mediated transphosphatidylation, in the presence of 1-butanol, as previously described.
We further investigated the effect of A3373 on the enzymatic inhibition of PLD1 and PLD2 in Pld^+/+, Pld1^−/−, and Pld2^−/− MEFs. […] Kinase profiling was used to evaluate the general selectivity of the lead compounds. […] To further investigate whether inhibition of PLD1 by A3373 occurs by binding to PLD1, we first modified A3373 by adding biotinylation instead of the F present in its structure and measured PLD activity.

The test system of data set [2] is DLD1 cells. Description: Cell cycle analysis (BrdU/7-AAD flow cytometry), DLD1. It counts as cell-based. The protocol:
For cell cycle analysis, the cells were treated with Α3373 or 5-FU. The cells were labeled with 10 μΜ bromodeoxyuridine (BrdU) for 2 h. Subsequently, the cells were stained with 7-aminoactinomycin D (7-AAD, Invitrogen) and a fluorescein isothiocyanate (FITC)-conjugated anti-BrdU antibody (Invitrogen). Apoptotic cells were detected using an Annexin V-FITC Apoptosis Detection Kit (BD Biosciences). The cells were analyzed using BD FACSAria III (BD Biosciences), and data analysis was performed using FlowJo v10.0 (BD Biosciences).
In general terms: In flow cytometry, cells or beads pass a laser one at a time.

The test system of data set [3] is DLD1 cells. As to the kind of experiment: Flow cytometry of CD44 and CD133. It counts as cell-based. The conditions noted are these: dose-dependent, mean fluorescence intensity.
The test system of the next data set is β-catenin/TCF-4 complex. As to the kind of experiment: Immunoprecipitation of β-catenin/TCF-4. It counts as cell-based. The conditions noted are these: 2 μM, 12 h, CRC cells. The method, then:
As previously described, lysates from cells or colorectal cancer (CRC) tissues were analyzed by immunoprecipitation, and/or Western blotting was performed as described previously. The antibodies used are listed in Supplementary Table 5. A polyclonal anti-PLD antibody that recognizes both PLD1 and PLD2 was generated, as previously described. The use of human CRC tissue samples was approved by the Institutional Review Board of Pusan National University, Korea (PNU IRB/2011-6).

Data set [4] concerns AOM/DSS-induced mouse colon cancer. Description: AOM/DSS-induced colitis-associated CRC model. The settings on record: AOM/DSS mice, 10 mg/kg. It counts as in vivo. The protocol: Supplementary materials and methods […]
The AOM/DSS colorect al cancer model was est ablished using 6 -weeks-old C57BL/6 male mice (Koat ech). Mice were given a single intraperitoneal (IP) injection of the mutagen AOM (10 mg/kg), aft er whi ch t hey were given three periods drinking water contai ning 2.5% DSS for 5 days, followed by 15 days of normal water. AOM/DSS-induced mice were given either vehicle (PBS containing 8% DMSO and 1% Tween 80) or 10 mg/kg A3373 compound every day by oral administration for 45 days. […]

Another data set deals with T2, hERG K^+ channel (Homo sapiens, UniProt Q12809).
T2 construct: expressed in transfected cells; host or cells: HEK293
T2 sequence (Q12809 whole entry): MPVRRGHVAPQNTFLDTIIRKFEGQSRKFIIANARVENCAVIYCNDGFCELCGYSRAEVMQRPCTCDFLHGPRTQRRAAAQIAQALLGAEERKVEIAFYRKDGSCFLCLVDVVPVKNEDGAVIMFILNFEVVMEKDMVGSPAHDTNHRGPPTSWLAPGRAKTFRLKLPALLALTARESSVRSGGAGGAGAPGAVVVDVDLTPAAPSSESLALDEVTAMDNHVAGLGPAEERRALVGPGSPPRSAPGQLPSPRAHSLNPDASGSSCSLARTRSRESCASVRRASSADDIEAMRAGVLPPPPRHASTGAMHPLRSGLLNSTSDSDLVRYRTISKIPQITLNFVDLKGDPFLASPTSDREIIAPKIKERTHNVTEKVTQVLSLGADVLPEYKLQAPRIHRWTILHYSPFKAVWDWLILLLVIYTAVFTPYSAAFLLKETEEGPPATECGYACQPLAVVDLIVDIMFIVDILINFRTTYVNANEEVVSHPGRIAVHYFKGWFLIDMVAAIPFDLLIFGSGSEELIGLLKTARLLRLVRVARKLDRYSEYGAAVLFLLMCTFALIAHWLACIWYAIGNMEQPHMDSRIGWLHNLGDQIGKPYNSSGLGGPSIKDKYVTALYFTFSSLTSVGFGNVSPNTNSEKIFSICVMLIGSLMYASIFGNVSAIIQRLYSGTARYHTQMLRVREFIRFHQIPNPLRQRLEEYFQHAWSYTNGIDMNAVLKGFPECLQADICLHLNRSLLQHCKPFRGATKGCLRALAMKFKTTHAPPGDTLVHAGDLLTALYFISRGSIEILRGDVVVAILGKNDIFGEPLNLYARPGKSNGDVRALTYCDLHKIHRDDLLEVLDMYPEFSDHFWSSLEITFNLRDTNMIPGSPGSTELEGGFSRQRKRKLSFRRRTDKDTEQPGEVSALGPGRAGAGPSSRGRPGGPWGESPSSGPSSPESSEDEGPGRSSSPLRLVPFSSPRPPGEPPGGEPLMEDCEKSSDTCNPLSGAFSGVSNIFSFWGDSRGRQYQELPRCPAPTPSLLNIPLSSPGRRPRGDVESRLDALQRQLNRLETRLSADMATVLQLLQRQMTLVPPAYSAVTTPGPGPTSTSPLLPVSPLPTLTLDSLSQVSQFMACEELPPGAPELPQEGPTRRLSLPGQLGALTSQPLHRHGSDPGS
As to the kind of experiment: hERG patch-clamp assay in HEK293 cells transfected with hERG. It is filed as cell-based. The protocol:
Both hERG assays were conducted as described previously.

A further data set relates to MC38 cells. Description: MC38 syngeneic tumor model. It counts as in vivo, mouse. The method, then:
manner. The incision was extended to 2–3 cm, and the cecum was exposed. 2 × 10^5 MC38-GFP-Luciferas e cells were suspended in 50 µL PBS and injected into the cecum. Seven days after cell injection, 10 mg/kg A3373 was orally administered to the mice daily for 4 weeks.
A colon can cer syngenei c model was established using 6- weeks-old C57B L/6 male mice. 2 × 10^5 MC38 cells were suspended in 50µ l PBS and subcutaneously injected into the flanks of the mice. After 7 days of cell injection, mice were randomized into four groups and all groups were treated as follows for 2 weeks: vehicle grou p, mice were IP administered vehicle every day; A3373 group, mice were IP administrated with 10 mg/kg A3373 every day; α PD-L1 antibody group, mice were IP administrated with 5 mg/kg anti-mouse PD-L1 (BioXcell) eve ry two days; A3373 + αPD-L1 antibody group, mice received A3373 (10 mg/kg) daily with anti - mouse PD-L1 (5 mg/kg) every 2 days. Tumor volume was measured in MC38 cells subcutaneous injected mice every 2 days after 7 days of cell injection. External tumor measurements were made using precision calipers, and tumor volume (TV) was calcul ated according to the following formula: TV = (W × L2)/2 (W = width and L = l ength).
. All animal procedu res were performed in accordance with the institutional guidelines for animal research and were approved by the Institutional Animal Care and Use Committee of Yonsei University (IACUC- […]
In a colon cancer orthotropic model, tumor-infiltrating lymphocytes (TILs) were isolated from the tumor tissue 30 days after cell injection. […]
After 20 minutes of incubation, 0.1 M EDTA was added to prevent clumping. Cells were filtered through a 40 µm nylon mesh, single-cell suspensions were counted and used for the experiments. […] Isolated tumor cells were cultured for one passage to change the immunocompromised phenotype and assessed using flow cytometry. […]

The subject of data set [5] is CRC cells. Description: TCF transactivation in CRC cells with an active Wnt pathway. It counts as cell-based.
Data set [6] relates to CRC cells. As to the kind of experiment: Cell migration and invasion assay. It counts as cell-based. The protocol: For the cell migration assay, the cells were added to an 8 μm pore transwell polycarbonate chamber (SPL Life Science). After 24 h of incubation, the number of cells that migrated through the membrane into the lower chamber was counted. For the cell invasion assay, Matrigel (dilution at 1:5; BD Biosciences) was added to the Transwell chambers and incubated for 5 h. The cells were then seeded; after 24 h of incubation, the invaded cells on the bottom of the membrane were fixed with 10% formalin for 20 min and stained with 0.1% crystal violet for 3 h. The extent of invasion was expressed as the average number of cells per microscopic field.

T1 sequence (P97813 whole entry): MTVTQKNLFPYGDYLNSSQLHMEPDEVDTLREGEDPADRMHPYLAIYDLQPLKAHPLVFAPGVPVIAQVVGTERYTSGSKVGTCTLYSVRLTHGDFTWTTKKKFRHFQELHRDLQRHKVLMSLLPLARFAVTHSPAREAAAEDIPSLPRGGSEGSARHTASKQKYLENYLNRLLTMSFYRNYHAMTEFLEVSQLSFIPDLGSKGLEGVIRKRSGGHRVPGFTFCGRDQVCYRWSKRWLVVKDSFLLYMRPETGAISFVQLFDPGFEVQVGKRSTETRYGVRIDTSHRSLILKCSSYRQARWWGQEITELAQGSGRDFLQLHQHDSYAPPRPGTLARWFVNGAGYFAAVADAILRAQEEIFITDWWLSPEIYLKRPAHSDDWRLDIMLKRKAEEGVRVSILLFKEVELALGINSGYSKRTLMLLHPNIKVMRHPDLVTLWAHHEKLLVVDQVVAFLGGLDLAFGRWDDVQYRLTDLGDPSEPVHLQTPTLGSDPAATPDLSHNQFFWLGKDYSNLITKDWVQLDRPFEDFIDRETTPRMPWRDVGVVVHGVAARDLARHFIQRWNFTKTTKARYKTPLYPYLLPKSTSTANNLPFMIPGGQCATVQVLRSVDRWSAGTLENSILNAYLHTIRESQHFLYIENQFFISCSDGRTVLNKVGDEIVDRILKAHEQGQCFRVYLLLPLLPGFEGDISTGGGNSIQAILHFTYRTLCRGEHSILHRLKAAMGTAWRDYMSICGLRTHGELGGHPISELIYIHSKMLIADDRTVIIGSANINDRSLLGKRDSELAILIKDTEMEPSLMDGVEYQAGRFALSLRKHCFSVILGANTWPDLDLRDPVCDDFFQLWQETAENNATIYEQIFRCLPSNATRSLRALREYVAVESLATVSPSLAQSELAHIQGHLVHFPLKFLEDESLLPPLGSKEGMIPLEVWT

For `O=C(Nc1cc(C(F)(F)F)cc(C(F)(F)F)c1)c1cc2cc(F)ccc2[nH]1` [Compound A3373], in [1], the approximate lethal dose entry is reported as “over 2000 mg/kg”. In addition, the “PLD2 activity, in words” value on PLD2 (2 μM, Pld−/− MEFs) is on record as “not PLD2 activity”. For the same compound, on PLD2 (Pld1−/− MEFs), the IC50 was determined as 15.1 µM. For the same compound, the “cell cycle / proliferation of CRC cells, in words” value in the data set with DLD1 cells [2] is listed as “significantly decreased the proliferation of CRC cells”. Further, in the data set with DLD1 cells [3], the “expression of CD44 and CD133” value was “significantly decreased the expression of CD44 and CD133”. For the same compound, the “endogenous interaction between β-catenin and TCF-4” value in the data set with β-catenin/TCF-4 complex is “disrupted the endogenous interaction between β-catenin and TCF-4”. Further, in data set [4], the “CD8 expression (IHC)” value is reported as “increased the expression level of CD8”; the “active caspase-3, Ki67 and CD31 in tumor tissues (IHC)” value is “increased the level of active caspase-3 and decreased the levels of Ki67 and CD31”; the “do not eat-me and eat-me signals in tumor tissues (IHC)” value is on record as “decreased the expression of “do not eat-me” signals but increased that of “eat-me” signals”; the “immune checkpoints (PD1, B7H4) and Foxp3 (IHC)” value is “reduced the expression of immune checkpoints (PD1 and B7H4) and Foxp3”. For the same compound, in data set [4], the mortality entry is recorded as “significantly lower”; the “number of intestinal polyps” value is “significantly lower”; the tumor formation result was “attenuated the tumor formation”; the “β-catenin and downstream target proteins (IHC)” value was “suppressed the levels of β-catenin and its downstream target proteins”. In addition, the IC50 against hERG K^+ channel is > 50 µM. Besides, the tumor formation entry in the data set on MC38 cells (A3373 10 mg/kg and/or αPD-L1) was “significantly decreased tumor formation”. For the same compound, the “CD8+ T-cell-mediated killing of MC38-GFP-Luc cells, luciferase activity” value in the data set with MC38 cells (CD8+ T cells from treated tumor-bearing mice, increasing E/T ratio) is “significant reduction in luciferase activity”. The “percentage of immune cells (CD45+ cells) in total cells” value with MC38 cells (tumors at maximum volume, flow cytometry, vehicle ~20%) is ~50%. Also, the “TCF transactivation in CRC cells” value in the data set on CRC cells [5] is given as “significantly suppressed TCF transactivation”. The “Wnt3a-induced migration and invasion” value in the data set on CRC cells [6] is “significantly suppressed Wnt3a-induced migration and invasion”.

The term IC50 denotes the concentration that gives 50% inhibition. Low readings indicate greater potency, high ones weaker potency.
